Test results reported in ChEMBL document CHEMBL4382202, “1-(2-Hydroxybenzoyl)-thiosemicarbazides are promising antimicrobial agents targeting d-alanine-d-alanine ligase in bacterio” (Eur J Med Chem, 2018).
Active and inactive are the calls of the source. The rule behind the calls is not given here.

How the values were obtained:
[1] = molecular target: Prostaglandin G/H synthase 1 (Homo sapiens) (UniProt P23219); assay: Inhibition of human recombinant COX1 at 10 uM using arachidonic acid as substrate after 3 mins by fluorimetric analysis relative to control
Klebsiella pneumoniae = assay: Antibacterial activity against Klebsiella pneumoniae ATCC 700603 after 18 to 24 hrs by microdilution assay; type: functional, organism-based
[2] = molecular target: DNA gyrase (Staphylococcus aureus) (UniProt P0A0K8+P20831); assay: Inhibition of Staphylococcus aureus DNA gyrase at 10 uM using supercoiled pBR322 DNA as substrate after 1 hr by ethidium bromide staining-based agarose gel electrophoresis relative to control; type: protein-complex assay
[3] = molecular target: T1, D-alanine--D-alanine ligase (Enterococcus faecalis (strain ATCC 700802 / V583)) (UniProt Q47758); assay: Mixed non-competitive type inhibition of Enterococcus faecalis JH2-2 C-terminal 6His-tagged DdlB expressed in Escherichia coli LMG194 at 1 to 10 uM preincubated for 30 mins followed increasing substrate and fixed ATP addition and measured after 20 mins by Biomol Green reagent assay
T1 sequence (whole entry): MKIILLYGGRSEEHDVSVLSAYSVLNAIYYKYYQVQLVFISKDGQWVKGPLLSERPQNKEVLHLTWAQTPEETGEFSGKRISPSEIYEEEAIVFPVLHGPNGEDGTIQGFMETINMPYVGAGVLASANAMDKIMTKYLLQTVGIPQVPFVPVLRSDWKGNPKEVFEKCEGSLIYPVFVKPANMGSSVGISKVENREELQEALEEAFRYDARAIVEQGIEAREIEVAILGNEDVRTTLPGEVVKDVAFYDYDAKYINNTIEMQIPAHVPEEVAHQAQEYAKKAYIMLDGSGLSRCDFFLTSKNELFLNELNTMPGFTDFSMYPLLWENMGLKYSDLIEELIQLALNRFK

[4] = molecular target: Monoglyceride lipase (Homo sapiens) (UniProt Q99685); assay: Inhibition of human MAGL at 10 uM relative to control
Pseudomonas aeruginosa = assay: Antibacterial activity against Pseudomonas aeruginosa PAO1 after 18 to 24 hrs by microdilution assay; type: functional, organism-based
[5] = molecular target: Prothrombin (Homo sapiens) (UniProt P00734); assay: Inhibition of human thrombin at 10 uM using Z-GPR-AMC as substrate after 30 mins by fluorimetric analysis relative to control
Escherichia coli = assay: Inhibition of Escherichia coli DNA topoisomerase 4 at 10 uM using interlinked kDNA as substrate after 1 hr by ethidium bromide staining-based agarose gel electrophoresis relative to control
[6] = molecular target: T1, D-alanine--D-alanine ligase (Enterococcus faecalis (strain ATCC 700802 / V583)); assay: Inhibition of Enterococcus faecalis JH2-2 C-terminal 6His-tagged DdlB expressed in Escherichia coli LMG194 assessed as Vmax/Km of ATP at 10 uM by Biomol Green reagent assay (reference value: 0.3 /min)
[7] = molecular target: Acetylcholinesterase (Homo sapiens) (UniProt P22303); assay: Inhibition of human recombinant acetylcholinesterase at 10 uM using acetylthiocholine as substrate after 30 mins by spectrophotometric analysis relative to control
[8] = molecular target: Secretory phospholipase A2 (Homo sapiens) (UniProt Q5R387+Q9NZK7+P14555+Q9BZM2+Q9UNK4+P39877+O15496+P04054+Q9NZ20+Q9BZM1+Q9BX93); assay: Inhibition of human sPLA2 at 10 uM relative to control; type: protein assay
[9] = molecular target: Angiotensin-converting enzyme (Homo sapiens) (UniProt P12821); assay: Inhibition of human recombinant ACE at 10 uM using Abz-FRK(Dnp)-P-OH as substrate after 30 mins by fluorimetric analysis relative to control
[10] = molecular target: DNA gyrase (Escherichia coli) (UniProt P0AES6+P0AES4); assay: Inhibition of Escherichia coli DNA gyrase at 10 uM using supercoiled pBR322 DNA as substrate after 1 hr by ethidium bromide staining-based agarose gel electrophoresis relative to control; type: protein-complex assay
[11] = molecular target: Carbonic anhydrase 2 (Homo sapiens) (UniProt P00918); assay: Inhibition of human carbonic anhydrase 2 at 10 uM using 4-nitrophenyl acetate as substrate after 20 mins by spectrophotometric analysis relative to control
Bacillus cereus = assay: Inhibition of Bacillus cereus beta-lactamase at 10 uM using nitrocefin as substrate preincubated for 15 mins followed by substrate addition and measured after 60 mins by spectrophotometric analysis relative to control
[12] = molecular target: T1, D-alanine--D-alanine ligase (Enterococcus faecalis (strain ATCC 700802 / V583)); assay: Inhibition of Enterococcus faecalis JH2-2 C-terminal 6His-tagged DdlB expressed in Escherichia coli LMG194 assessed as Vmax/Km of D-Ala at 10 uM by Biomol Green reagent assay (reference value: 11.02 /min)
[13] = molecular target: L-lactate dehydrogenase A chain (Homo sapiens) (UniProt P00338); assay: Inhibition of human recombinant full-length LDHA at 10 uM using sodium pyruvate as substrate after 60 mins by resazurin dye-based assay relative to control
[14] = molecular target: Tyrosine-protein kinase Lck (Homo sapiens) (UniProt P06239); assay: Inhibition of human recombinant Lck at 10 uM using Ulight-Poly GAT[EAY(1:1:1)]n as substrate after 10 mins by LANCE analysis relative to control
[15] = molecular target: cGMP-inhibited 3',5'-cyclic phosphodiesterase 3A (Homo sapiens) (UniProt Q14432); assay: Inhibition of human recombinant PDE3A using [3H]cAMP at 10 uM after 20 mins by scintillation counting analysis relative to control
[16] = molecular target: Peroxisome proliferator-activated receptor alpha (Homo sapiens) (UniProt Q07869); assay: Displacement of [3H]WY 14643 from human recombinant PPARalpha receptor at 10 uM at 10 uM after 120 mins by scintillation counting analysis relative to control
[17] = molecular target: T1, D-alanine--D-alanine ligase (Enterococcus faecalis (strain ATCC 700802 / V583)); assay: Inhibition of Enterococcus faecalis JH2-2 C-terminal 6His-tagged DdlB expressed in Escherichia coli LMG194 assessed as Vmax/Km of D-Ala at 1 uM by Biomol Green reagent assay (reference value: 11.02 /min)
[18] = molecular target: Arginase-1 (Homo sapiens) (UniProt P05089); assay: Inhibition of human recombinant Arg1 at 10 uM using L-arginine as substrate after 5 mins in presence of [guanidino-14C]-L-arginine by liquid scintillation counting analysis relative to control
[19] = molecular target: Muscarinic acetylcholine receptor M1 (Homo sapiens) (UniProt P11229); assay: Displacement of […] from human recombinant M1 receptor at 10 uM after 60 mins by scintillation counting analysis relative to control
[20] = molecular target: 5-hydroxytryptamine receptor 1A (Homo sapiens) (UniProt P08908); assay: Displacement of [3H]8-OH-DPAT from recombinant human 5-HT1A receptor at 10 uM after 60 mins by scintillation counting analysis relative to control
[21] = molecular target: D-3-phosphoglycerate dehydrogenase (Homo sapiens) (UniProt O43175); assay: Inhibition of human recombinant C-terminal His-tagged PHGDH (1 to 533 residues) expressed in Escherichia coli at 10 uM using 3-phosphoglycerate as substrate relative to control
[22] = molecular target: T1, D-alanine--D-alanine ligase (Enterococcus faecalis (strain ATCC 700802 / V583)); assay: Inhibition of Enterococcus faecalis JH2-2 C-terminal 6His-tagged DdlB expressed in Escherichia coli LMG194 at 10 uM preincubated for 30 mins followed by substrate addition and measured after 20 mins by Biomol Green reagent assay relative to control

Sequence of Muscarinic acetylcholine receptor M1 (Homo sapiens) (P11229 whole entry): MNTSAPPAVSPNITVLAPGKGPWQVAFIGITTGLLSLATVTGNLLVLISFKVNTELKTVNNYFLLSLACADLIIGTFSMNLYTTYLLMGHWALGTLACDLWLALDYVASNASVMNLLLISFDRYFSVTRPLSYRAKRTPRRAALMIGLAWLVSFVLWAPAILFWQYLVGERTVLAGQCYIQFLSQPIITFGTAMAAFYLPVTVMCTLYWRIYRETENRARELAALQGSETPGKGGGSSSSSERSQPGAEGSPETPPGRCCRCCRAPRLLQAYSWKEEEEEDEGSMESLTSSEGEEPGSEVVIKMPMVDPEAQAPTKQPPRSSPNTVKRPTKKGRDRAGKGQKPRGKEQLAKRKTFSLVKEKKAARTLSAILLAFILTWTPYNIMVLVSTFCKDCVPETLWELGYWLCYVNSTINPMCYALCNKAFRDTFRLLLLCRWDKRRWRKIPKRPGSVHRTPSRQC
Sequence of Acetylcholinesterase (Homo sapiens) (P22303 whole entry): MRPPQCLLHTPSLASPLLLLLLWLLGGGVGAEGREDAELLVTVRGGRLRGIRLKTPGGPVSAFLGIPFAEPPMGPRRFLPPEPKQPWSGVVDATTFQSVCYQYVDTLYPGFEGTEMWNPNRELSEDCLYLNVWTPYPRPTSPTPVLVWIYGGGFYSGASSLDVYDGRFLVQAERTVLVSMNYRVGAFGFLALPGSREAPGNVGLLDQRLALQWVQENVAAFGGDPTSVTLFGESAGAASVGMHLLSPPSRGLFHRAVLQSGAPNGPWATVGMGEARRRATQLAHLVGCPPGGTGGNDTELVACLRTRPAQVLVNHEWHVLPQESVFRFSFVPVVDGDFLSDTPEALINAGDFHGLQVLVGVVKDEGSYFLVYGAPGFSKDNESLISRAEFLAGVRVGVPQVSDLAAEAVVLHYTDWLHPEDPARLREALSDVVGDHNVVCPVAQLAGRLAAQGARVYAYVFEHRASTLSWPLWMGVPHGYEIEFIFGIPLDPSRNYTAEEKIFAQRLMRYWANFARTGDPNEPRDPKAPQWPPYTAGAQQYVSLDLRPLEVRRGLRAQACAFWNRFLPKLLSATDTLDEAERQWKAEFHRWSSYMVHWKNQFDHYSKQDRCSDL
Sequence of Arginase-1 (Homo sapiens) (P05089 whole entry): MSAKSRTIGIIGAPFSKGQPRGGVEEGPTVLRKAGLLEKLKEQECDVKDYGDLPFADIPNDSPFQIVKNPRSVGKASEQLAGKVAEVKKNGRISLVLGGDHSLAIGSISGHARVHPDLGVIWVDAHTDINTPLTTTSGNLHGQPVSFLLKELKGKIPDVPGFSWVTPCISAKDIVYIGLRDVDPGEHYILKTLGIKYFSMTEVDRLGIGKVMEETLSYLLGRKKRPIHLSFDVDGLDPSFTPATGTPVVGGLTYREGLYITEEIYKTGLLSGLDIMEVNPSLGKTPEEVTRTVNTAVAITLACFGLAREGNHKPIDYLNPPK
Sequence of cGMP-inhibited 3',5'-cyclic phosphodiesterase 3A (Homo sapiens) (Q14432 whole entry): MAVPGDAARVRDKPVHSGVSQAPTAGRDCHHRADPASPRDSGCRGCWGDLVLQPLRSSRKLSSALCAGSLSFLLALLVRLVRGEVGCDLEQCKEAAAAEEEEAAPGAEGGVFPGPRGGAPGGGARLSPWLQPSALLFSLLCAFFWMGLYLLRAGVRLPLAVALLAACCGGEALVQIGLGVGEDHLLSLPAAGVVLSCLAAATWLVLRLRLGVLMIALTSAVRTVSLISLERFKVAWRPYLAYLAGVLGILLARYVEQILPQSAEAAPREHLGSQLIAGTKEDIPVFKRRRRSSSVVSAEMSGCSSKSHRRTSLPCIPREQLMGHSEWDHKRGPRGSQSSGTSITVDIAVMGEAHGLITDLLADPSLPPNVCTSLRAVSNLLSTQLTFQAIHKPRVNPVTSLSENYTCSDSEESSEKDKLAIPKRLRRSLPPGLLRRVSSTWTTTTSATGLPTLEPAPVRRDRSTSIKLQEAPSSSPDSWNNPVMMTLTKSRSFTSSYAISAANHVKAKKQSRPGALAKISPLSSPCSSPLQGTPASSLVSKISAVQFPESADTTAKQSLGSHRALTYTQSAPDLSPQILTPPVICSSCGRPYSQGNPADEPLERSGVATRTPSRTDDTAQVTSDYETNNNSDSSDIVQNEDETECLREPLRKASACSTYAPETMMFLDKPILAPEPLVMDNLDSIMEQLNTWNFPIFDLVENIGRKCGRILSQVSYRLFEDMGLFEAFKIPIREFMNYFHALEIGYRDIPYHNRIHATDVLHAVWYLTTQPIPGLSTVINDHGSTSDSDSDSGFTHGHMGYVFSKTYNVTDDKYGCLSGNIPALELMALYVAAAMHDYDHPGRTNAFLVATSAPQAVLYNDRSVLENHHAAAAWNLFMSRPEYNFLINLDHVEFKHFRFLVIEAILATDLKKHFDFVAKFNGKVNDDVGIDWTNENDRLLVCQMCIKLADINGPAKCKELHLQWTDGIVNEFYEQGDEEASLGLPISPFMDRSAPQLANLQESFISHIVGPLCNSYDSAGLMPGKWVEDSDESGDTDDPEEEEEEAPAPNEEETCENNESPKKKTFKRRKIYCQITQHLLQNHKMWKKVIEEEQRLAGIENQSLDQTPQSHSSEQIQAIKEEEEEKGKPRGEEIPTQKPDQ
Sequence of Angiotensin-converting enzyme (Homo sapiens) (P12821 whole entry): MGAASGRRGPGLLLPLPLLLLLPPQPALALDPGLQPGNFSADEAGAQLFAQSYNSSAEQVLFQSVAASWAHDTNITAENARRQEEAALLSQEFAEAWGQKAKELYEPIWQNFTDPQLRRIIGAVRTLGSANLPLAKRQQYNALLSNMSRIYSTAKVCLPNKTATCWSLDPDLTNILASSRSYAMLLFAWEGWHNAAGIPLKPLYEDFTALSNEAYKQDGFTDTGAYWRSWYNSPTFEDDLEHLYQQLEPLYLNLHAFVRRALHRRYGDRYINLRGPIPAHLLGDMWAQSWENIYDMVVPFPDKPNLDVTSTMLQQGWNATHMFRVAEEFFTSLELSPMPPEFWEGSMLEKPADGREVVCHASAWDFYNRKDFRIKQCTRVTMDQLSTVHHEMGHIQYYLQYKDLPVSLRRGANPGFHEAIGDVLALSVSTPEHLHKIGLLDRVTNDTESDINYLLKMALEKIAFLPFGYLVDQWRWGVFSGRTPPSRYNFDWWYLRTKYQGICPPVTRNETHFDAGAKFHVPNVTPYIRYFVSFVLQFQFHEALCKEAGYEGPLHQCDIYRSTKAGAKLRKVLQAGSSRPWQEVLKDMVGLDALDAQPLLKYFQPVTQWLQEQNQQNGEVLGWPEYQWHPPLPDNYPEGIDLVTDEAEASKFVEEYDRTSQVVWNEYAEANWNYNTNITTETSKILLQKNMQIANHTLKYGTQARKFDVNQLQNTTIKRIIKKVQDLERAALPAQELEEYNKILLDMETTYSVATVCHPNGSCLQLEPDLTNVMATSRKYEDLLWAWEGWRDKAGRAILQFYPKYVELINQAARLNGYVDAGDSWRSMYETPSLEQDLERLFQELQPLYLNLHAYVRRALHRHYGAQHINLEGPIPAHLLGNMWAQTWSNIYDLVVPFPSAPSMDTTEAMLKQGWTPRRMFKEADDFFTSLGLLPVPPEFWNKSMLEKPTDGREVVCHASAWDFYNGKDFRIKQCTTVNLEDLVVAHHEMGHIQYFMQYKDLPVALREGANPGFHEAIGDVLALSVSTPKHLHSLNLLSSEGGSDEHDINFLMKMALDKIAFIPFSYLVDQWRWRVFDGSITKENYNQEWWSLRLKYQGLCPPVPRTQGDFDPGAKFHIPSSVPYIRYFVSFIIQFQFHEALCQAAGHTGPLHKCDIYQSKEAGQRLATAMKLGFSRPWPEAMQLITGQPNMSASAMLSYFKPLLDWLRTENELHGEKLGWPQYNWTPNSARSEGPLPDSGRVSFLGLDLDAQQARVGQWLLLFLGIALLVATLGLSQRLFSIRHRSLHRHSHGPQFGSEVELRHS
Sequence of Peroxisome proliferator-activated receptor alpha (Homo sapiens) (Q07869 whole entry): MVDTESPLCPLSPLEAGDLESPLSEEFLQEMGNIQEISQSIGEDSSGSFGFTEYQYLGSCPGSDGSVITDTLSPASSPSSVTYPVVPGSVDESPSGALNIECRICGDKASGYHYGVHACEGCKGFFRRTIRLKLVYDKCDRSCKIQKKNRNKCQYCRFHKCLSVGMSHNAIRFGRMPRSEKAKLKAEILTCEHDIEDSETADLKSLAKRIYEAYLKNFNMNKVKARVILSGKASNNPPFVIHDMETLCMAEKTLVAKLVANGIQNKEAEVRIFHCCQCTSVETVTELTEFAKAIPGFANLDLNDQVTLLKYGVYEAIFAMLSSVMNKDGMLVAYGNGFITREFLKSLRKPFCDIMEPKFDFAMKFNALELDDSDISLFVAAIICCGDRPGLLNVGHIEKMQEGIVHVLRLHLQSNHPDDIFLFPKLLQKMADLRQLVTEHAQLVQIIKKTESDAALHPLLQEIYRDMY
Sequence of 5-hydroxytryptamine receptor 1A (Homo sapiens) (P08908 whole entry, the tested form may be a part): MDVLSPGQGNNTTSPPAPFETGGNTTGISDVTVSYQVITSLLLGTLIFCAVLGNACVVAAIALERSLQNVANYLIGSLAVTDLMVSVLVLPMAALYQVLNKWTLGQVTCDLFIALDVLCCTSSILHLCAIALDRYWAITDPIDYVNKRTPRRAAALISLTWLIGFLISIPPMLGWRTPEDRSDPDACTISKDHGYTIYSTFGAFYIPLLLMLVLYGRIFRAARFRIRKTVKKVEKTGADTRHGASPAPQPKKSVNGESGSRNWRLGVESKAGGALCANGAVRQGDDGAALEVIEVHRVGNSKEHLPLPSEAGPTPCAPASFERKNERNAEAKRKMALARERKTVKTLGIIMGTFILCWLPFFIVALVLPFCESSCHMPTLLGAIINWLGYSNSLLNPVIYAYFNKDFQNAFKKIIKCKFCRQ
Sequence of Monoglyceride lipase (Homo sapiens) (Q99685 whole entry): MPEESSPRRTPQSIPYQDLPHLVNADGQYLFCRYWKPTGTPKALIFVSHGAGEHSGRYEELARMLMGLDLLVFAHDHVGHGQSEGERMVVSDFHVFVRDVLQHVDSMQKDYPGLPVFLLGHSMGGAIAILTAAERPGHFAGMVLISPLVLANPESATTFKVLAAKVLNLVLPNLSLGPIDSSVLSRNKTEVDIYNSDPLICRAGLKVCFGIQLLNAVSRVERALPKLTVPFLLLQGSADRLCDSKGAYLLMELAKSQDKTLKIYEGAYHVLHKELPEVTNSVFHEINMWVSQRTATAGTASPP

With O=C(NNC(=S)Nc1ccc(Cl)c(Cl)c1)c1ccccc1O the inhibition [1] was < 30%, the MIC (Klebsiella pneumoniae) was “inactive” and the inhibition [2] was < 30%. The inhibition [3] was “Active”, the inhibition [4] was < 30% and the MIC (Pseudomonas aeruginosa) was “inactive”. The inhibition [5] was < 30%, the inhibition (Escherichia coli) was < 30% and the Vmax/Km [6] was 0.1 min⁻¹. The inhibition [7] was < 30%, the inhibition [8] was < 30% and the inhibition [9] was < 30%. The inhibition [10] was < 30%, the inhibition [11] was < 30% and the inhibition (Bacillus cereus) was < 30%. The Vmax/Km [12] was 4.69 min⁻¹, the inhibition [13] was < 30% and the inhibition [14] was < 30%. The inhibition [15] was < 30%, the inhibition [16] was < 30% and the Vmax/Km [17] was 6.93 min⁻¹. For the same compound, the inhibition [18] was < 30%, the inhibition [19] was < 30% and the inhibition [20] was < 30%. For the same compound, the inhibition [21] was < 30% and the inhibition [22] was > 30%.
